Active and inactive are the calls of the source. No cut-off for these calls is given here.
What was measured:
[1] = target: T1, Transient receptor potential cation channel subfamily A member 1 (Homo sapiens, UniProt O75762); assay: Activation of human TRPA1 expressed in HEK293 cells assessed as increase in calcium level at 20 uM in presence of TRPA1 channel blocker A-967079 by fura2/AM dye based single cell based plate reader analysis
HEK293 [2] = assay: Increase in calcium level in HEK293 cells at 20 uM by fura2/AM dye based single cell based plate reader analysis; format: functional; details: Homo sapiens
[3] = target: T1, Transient receptor potential cation channel subfamily A member 1; assay: Activation of human TRPA1 expressed in HEK293 cells assessed as increase in calcium level by fluo-4 dye based plate reader analysis; format: cell-based
HEK293 [4] = assay: Increase in calcium level in HEK293 cells at 0.1 to 100 uM by fluo-4 dye based plate reader analysis; format: functional, cell-based; details: Homo sapiens
[5] = target: T1, Transient receptor potential cation channel subfamily A member 1; assay: Activation of human TRPA1 expressed in HEK293 cells assessed as increase in calcium level at 20 uM by fura2/AM dye based single cell based plate reader analysis
[6] = target: T1, Transient receptor potential cation channel subfamily A member 1; assay: Activation of human TRPA1 expressed in HEK293 cells assessed as induction of inward current at 10 uM at -70 to +70 mV by whole cell patch clamp assay; format: cell-based
[7] = target: T1, Transient receptor potential cation channel subfamily A member 1; assay: Activation of human TRPA1 expressed in HEK293 cells assessed as induction of outward current at 10 uM at -70 to +70 mV by whole cell patch clamp assay; format: cell-based
[8] = target: T1, Transient receptor potential cation channel subfamily A member 1; assay: Activation of human TRPA1 expressed in HEK293 cells assessed as induction of inward current at 10 uM at -70 to +70 mV in presence of TRPA1 channel blocker A-967079 by whole cell patch clamp assay; format: cell-based
[9] = target: T1, Transient receptor potential cation channel subfamily A member 1; assay: Activation of human TRPA1 expressed in HEK293 cells assessed as induction of outward current at 10 uM at -70 to +70 mV in presence of TRPA1 channel blocker A-967079 by whole cell patch clamp assay; format: cell-based
DRG neuron = assay: Increase in calcium level in DRG neurons isolated from TRPA1 deficient mouse at 10 uM by fura2/AM dye based plate reader analysis; format: functional, cell-based
[10] = target: Transient receptor potential cation channel subfamily A member 1 (Mus musculus) (UniProt Q8BLA8); assay: Activation of TRPA1 in wild type mouse DRG neurons assessed as increase in calcium level at 10 uM treated after 10 uM Plumbagin pre-treatment by fura2/AM dye based plate reader analysis relative to control
Sequence of Transient receptor potential cation channel subfamily A member 1 (Mus musculus) (Q8BLA8 whole entry): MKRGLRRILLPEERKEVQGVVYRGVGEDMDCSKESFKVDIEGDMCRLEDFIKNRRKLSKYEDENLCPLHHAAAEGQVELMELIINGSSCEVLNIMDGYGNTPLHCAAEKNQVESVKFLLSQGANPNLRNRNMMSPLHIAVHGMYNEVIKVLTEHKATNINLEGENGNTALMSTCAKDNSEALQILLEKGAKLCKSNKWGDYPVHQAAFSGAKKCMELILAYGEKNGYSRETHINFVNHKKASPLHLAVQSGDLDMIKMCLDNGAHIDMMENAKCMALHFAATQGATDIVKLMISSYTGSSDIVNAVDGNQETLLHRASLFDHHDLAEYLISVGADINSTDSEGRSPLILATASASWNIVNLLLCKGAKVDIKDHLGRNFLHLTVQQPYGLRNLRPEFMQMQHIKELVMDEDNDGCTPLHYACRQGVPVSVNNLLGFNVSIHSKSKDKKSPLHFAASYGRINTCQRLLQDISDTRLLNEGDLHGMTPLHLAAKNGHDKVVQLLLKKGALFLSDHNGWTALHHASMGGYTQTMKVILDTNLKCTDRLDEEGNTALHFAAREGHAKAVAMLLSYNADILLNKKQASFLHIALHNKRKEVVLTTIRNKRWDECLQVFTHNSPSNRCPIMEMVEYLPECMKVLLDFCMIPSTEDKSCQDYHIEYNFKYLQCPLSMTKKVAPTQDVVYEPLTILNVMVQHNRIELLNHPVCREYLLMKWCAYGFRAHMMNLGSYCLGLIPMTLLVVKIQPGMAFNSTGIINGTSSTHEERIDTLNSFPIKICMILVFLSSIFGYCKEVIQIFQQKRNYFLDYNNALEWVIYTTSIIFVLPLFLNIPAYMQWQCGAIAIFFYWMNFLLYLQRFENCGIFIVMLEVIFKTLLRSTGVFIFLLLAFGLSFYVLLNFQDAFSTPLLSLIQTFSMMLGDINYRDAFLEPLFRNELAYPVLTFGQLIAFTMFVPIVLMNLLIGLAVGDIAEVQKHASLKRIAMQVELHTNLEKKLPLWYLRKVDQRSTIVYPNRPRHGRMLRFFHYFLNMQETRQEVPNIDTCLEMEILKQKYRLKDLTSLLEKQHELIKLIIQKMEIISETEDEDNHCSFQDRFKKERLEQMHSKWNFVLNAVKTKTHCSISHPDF

[11] = target: T1, Transient receptor potential cation channel subfamily A member 1; assay: Activation of human TRPA1 expressed in HEK293 cells assessed as induction of current at 10 uM at -70 to +70 mV by whole cell patch clamp assay; format: cell-based
[12] = target: Transient receptor potential cation channel subfamily A member 1 (Mus musculus) (UniProt Q8BLA8); assay: Activation of TRPA1 in wild type mouse DRG neurons assessed as increase in calcium level at 10 uM by fura2/AM dye based plate reader analysis relative to control
[13] = target: T1, Transient receptor potential cation channel subfamily A member 1; assay: Activation of human TRPA1 expressed in HEK293 cells assessed as induction of current at 1 uM at -70 to +70 mV by whole cell patch clamp assay; format: cell-based
[14] = target: T1, Transient receptor potential cation channel subfamily A member 1; assay: Decrease in TRPA1 current amplitude in human TRPA1 expressed HEK293 cells at 10 uM at high voltage by whole cell patch clamp assay; format: cell-based
[15] = target: T1, Transient receptor potential cation channel subfamily A member 1; assay: Activation of human TRPA1 expressed in HEK293 cells assessed as induction of current at 1 to 10 uM at +70 mV in presence of extracellular catalase by whole cell patch clamp assay; format: cell-based
[16] = target: T1, Transient receptor potential cation channel subfamily A member 1; assay: Activation of human TRPA1 expressed in HEK293 cells assessed as induction of current at 1 to 10 uM at +70 mV in presence of intracellular catalase by whole cell patch clamp assay; format: cell-based
[17] = Lipophilicity, logP of compound; details: octanol/water

T1 sequence (O75762 whole entry): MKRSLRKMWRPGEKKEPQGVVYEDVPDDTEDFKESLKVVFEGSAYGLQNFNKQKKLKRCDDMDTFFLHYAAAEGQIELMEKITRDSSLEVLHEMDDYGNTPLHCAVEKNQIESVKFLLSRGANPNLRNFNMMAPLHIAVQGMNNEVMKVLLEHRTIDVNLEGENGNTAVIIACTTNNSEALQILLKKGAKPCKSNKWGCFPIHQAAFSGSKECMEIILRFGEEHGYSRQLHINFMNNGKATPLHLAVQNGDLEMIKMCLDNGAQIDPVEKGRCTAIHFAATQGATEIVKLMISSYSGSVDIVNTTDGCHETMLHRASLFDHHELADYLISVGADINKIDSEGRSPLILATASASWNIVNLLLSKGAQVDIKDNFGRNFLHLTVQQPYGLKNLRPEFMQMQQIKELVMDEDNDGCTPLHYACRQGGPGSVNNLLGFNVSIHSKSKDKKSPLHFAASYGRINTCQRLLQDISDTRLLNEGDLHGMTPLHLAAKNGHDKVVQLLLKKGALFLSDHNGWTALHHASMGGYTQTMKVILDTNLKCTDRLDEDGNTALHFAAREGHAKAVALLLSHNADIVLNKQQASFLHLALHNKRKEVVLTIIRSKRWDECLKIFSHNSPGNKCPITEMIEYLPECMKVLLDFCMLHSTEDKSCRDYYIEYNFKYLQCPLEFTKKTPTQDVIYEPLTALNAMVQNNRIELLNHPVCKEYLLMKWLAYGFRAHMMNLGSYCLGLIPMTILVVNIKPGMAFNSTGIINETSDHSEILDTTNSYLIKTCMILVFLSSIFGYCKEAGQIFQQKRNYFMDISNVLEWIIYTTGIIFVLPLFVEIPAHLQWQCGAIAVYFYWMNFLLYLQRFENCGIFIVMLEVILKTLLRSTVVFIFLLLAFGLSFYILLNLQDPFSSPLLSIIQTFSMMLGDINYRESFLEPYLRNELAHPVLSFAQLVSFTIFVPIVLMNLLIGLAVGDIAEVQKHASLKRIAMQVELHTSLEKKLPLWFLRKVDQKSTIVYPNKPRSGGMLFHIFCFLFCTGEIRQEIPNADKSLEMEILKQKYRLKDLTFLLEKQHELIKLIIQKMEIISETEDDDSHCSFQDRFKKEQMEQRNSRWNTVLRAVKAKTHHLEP

SMILES	Activity [1]	Activity (HEK293 [2])	EC50 [3]	Activity [5]	further results
O=C1C=CC(=O)c2c(O)cccc21 [JUGLONE]	inactive	inactive	1700 nM	Active	Activity (HEK293 [4]): inactive; Activity [6]: Active; Activity [7]: Active; Activity [8]: inactive; Activity [9]: inactive
C=CCN=C=S				Active	Activity (DRG neuron): inactive; Activity [6]: Active; Activity [7]: Active; Activity [10]: inactive
COc1cc(/C=C/C=O)ccc1OC/C=C(\C)CCC=C(C)C	inactive	inactive		Active	
O=C1C=C(O)C(=O)c2ccccc21				Active	
COc1cc(/C=C/C=O)ccc1OCC=C(C)C [BOROPINAL]	inactive	inactive	9800 nM	Active	Activity [11]: inactive; Activity [12]: inactive
COc1cc(/C=C/C(=O)O)ccc1OC/C=C(\C)CCC=C(C)C				Active	
CC1=CC(=O)c2c(O)cccc2C1=O [PLUMBAGIN]	inactive	inactive	460 nM	Active	Activity (DRG neuron): inactive; Activity [13]: inactive; Activity [14]: Active; Activity [15]: 65 pA/pF; Activity [16]: 93.5 pA/pF; Activity [12]: 50%; logP [17]: 3.69
CC(C)=CCC/C(C)=C/COc1ccc2ccc(=O)oc2c1				Active	

Reference: ChEMBL document CHEMBL4425086 (J Nat Prod, 2016)
